Laboratory results taken from PubChem BioAssay AID248 (DTP/NCI, 2004).
Values joined by “and” are separate entries in the source; they are usually repeats but may differ in a detail not shown here. Equal entries are not always repeated. Inconclusive results and toxic doses are left out. No stated cut-off is given here; in the data, active means T/C of 150% or more; inactive means T/C below 125%. Square brackets hold non-standard residues; d marks the D form. Peptide text beside a SMILES is read from it. * marks the point of attachment. ξ: configuration not given here. ξF = NC(Cc1ccccc1)C(=O)O; Cbz = O=C(OCc1ccccc1)*

Test system: L1210 leukemia ip in BDF1 mice, survival T/C
Assay: NCI In Vivo Anticancer Drug Screen. Data for tumor model L1210 Leukemia (intraperitoneal) in B6D2F1 (BDF1) mice
Conditions: endpoint: mean survival time, higher = longer survival
Outline: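 Read-out is survival time, reported as the treated-group measurement over the vehicle-control measurement.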

[1] = dose: 100.0 mg/kg/injection, schedule: Q04DX003 (ip), vehicle: saline with Tween-80
[2] = dose: 200.0 mg/kg/injection, schedule: Q04DX003 (ip), vehicle: saline with Tween-80
[3] = dose: 400.0 mg/kg/injection, schedule: Q04DX003 (ip), vehicle: saline with Tween-80

Measured: T/C

CCCCCCCCCCCCCCCCCCOc1ccccc1
inactive: dose: 100.0 mg/kg/injection, schedule: Q01DX009 (sc), vehicle: olive oil, sesame oil, peanut oil 94 % of control | dose: 100.0 mg/kg/injection, schedule: Q04DX003 (sc), vehicle: olive oil, sesame oil, peanut oil 95 % of control | dose: 200.0 mg/kg/injection, schedule: Q01DX009 (sc), vehicle: olive oil, sesame oil, peanut oil 99 % of control | dose: 200.0 mg/kg/injection, schedule: Q04DX003 (sc), vehicle: olive oil, sesame oil, peanut oil 101 % of control | dose: 400.0 mg/kg/injection, schedule: Q01DX009 (sc), vehicle: olive oil, sesame oil, peanut oil 94 % of control | dose: 400.0 mg/kg/injection, schedule: Q04DX003 (sc), vehicle: olive oil, sesame oil, peanut oil 108 % of control

COc1ccc(C(O)C(C)N)cc1 (stereo not given)
inactive: dose: 75.0 mg/kg/injection, schedule: Q01DX001 (ip), vehicle: saline 96 % of control | dose: 150.0 mg/kg/injection, schedule: Q01DX001 (ip), vehicle: saline 96 % of control

O=C1NC(=O)C2CCCCC12 (stereo not given)
inactive: dose: 100.0 mg/kg/injection, schedule: Q04DX002 (ip), vehicle: saline with Tween-80 90 % of control | [1] 96 % of control | dose: 200.0 mg/kg/injection, schedule: Q04DX002 (ip), vehicle: saline with Tween-80 121 % of control | [2] 104 % of control | dose: 400.0 mg/kg/injection, schedule: Q04DX002 (ip), vehicle: saline with Tween-80 107 % of control | [3] 104 % of control

CCOC(=O)c1ccc(Nc2nc3ccccc3o2)cc1
inactive: dose: 100.0 mg/kg/injection, schedule: Q01DX001 (ip), vehicle: carboxymethylcellulose (CMC) 91 % of control | dose: 200.0 mg/kg/injection, schedule: Q01DX001 (ip), vehicle: carboxymethylcellulose (CMC) 94 % of control | dose: 400.0 mg/kg/injection, schedule: Q01DX001 (ip), vehicle: carboxymethylcellulose (CMC) 93 % of control

NCC(OCC(=O)O)C(Cl)(Cl)Cl (stereo not given)
inactive: dose: 100.0 mg/kg/injection, schedule: Q01DX009 (ip), vehicle: saline with Tween-80 93 % of control | dose: 200.0 mg/kg/injection, schedule: Q01DX009 (ip), vehicle: saline with Tween-80 95 % of control | dose: 400.0 mg/kg/injection, schedule: Q01DX009 (ip), vehicle: saline with Tween-80 90 % of control

OC(C(F)(F)F)C(F)(F)Cl (stereo not given)
inactive: dose: 100.0 mg/kg/injection, schedule: Q01DX001 (ip), vehicle: saline 104 % of control

O=C(O)NNC(=O)NO
inactive: dose: 100.0 mg/kg/injection, schedule: Q01DX001 (ip), vehicle: saline with Tween-80 94 % of control | dose: 200.0 mg/kg/injection, schedule: Q01DX001 (ip), vehicle: saline with Tween-80 94 % of control | dose: 400.0 mg/kg/injection, schedule: Q01DX001 (ip), vehicle: saline with Tween-80 92 % of control

O=C(CNC(=O)OCc1ccccc1)NC(Cc1ccccc1)C(=O)O (stereo not drawn) (Cbz-Gly-[ξF]-OH)
inactive: dose: 50.0 mg/kg/injection, schedule: Q01DX009 (ip), vehicle: Klucel (hydroxypropylcellulose) (HPC) 95 % of control | dose: 50.0 mg/kg/injection, schedule: Q04DX003 (ip), vehicle: Klucel (hydroxypropylcellulose) (HPC) 93 % of control | dose: 100.0 mg/kg/injection, schedule: Q01DX009 (ip), vehicle: Klucel (hydroxypropylcellulose) (HPC) 97 % of control | dose: 100.0 mg/kg/injection, schedule: Q04DX003 (ip), vehicle: Klucel (hydroxypropylcellulose) (HPC) 98 % of control | dose: 200.0 mg/kg/injection, schedule: Q01DX009 (ip), vehicle: Klucel (hydroxypropylcellulose) (HPC) 93 % of control | dose: 200.0 mg/kg/injection, schedule: Q04DX003 (ip), vehicle: Klucel (hydroxypropylcellulose) (HPC) 100 % of control

CCOCCOCCOC(C)Oc1ccc(Cl)cc1 (stereo not given)
inactive: dose: 100.0 mg/kg/injection, schedule: Q04DX002 (ip), vehicle: saline 96 % of control | dose: 200.0 mg/kg/injection, schedule: Q04DX002 (ip), vehicle: saline 90 % of control | dose: 400.0 mg/kg/injection, schedule: Q04DX002 (ip), vehicle: saline 104 % of control

COc1ccc(CN2CCCN(Cc3ccc(OC)cc3)C2c2ccc(NC(C)=O)cc2)cc1
inactive: dose: 100.0 mg/kg/injection, schedule: Q01DX001 (ip), vehicle: acetone 100 % of control | dose: 200.0 mg/kg/injection, schedule: Q01DX001 (ip), vehicle: acetone 100 % of control

COC[CH2][Hg][O]C(C)=O
inactive: dose: 3.12 mg/kg/injection, schedule: Q04DX002 (ip), vehicle: Klucel (hydroxypropylcellulose) (HPC) 98 % of control | dose: 6.25 mg/kg/injection, schedule: Q04DX002 (ip), vehicle: Klucel (hydroxypropylcellulose) (HPC) 92 % of control | dose: 12.5 mg/kg/injection, schedule: Q04DX002 (ip), vehicle: Klucel (hydroxypropylcellulose) (HPC) 88 % of control and 90 % of control

CC(O)C#CC#CC(C)O (stereo not given)
inactive: dose: 12.5 mg/kg/injection, schedule: Q01DX009 (ip), vehicle: saline 103 % of control | dose: 12.5 mg/kg/injection, schedule: Q04DX002 (ip), vehicle: saline 113 % of control | dose: 25.0 mg/kg/injection, schedule: Q01DX009 (ip), vehicle: saline 109 % of control | dose: 25.0 mg/kg/injection, schedule: Q04DX002 (ip), vehicle: saline 109 % of control | dose: 50.0 mg/kg/injection, schedule: Q01DX009 (ip), vehicle: saline 101 % of control | dose: 50.0 mg/kg/injection, schedule: Q04DX002 (ip), vehicle: saline 94 % of control

CC(C)C(NC(=O)CCNC(=O)OCc1ccccc1)C(=O)O (stereo not given)
inactive: [1] 97 % of control | [2] 97 % of control | [3] 97 % of control

Cc1ccc(S(=O)(=O)N(CCCc2c(C)nc(N)[nH]c2=O)Cc2ccc(N)cc2)cc1
inactive: dose: 100.0 mg/kg/injection, schedule: Q04DX002 (ip), vehicle: Klucel (hydroxypropylcellulose) (HPC) 91 % of control | dose: 200.0 mg/kg/injection, schedule: Q04DX002 (ip), vehicle: Klucel (hydroxypropylcellulose) (HPC) 88 % of control | dose: 400.0 mg/kg/injection, schedule: Q04DX002 (ip), vehicle: Klucel (hydroxypropylcellulose) (HPC) 112 % of control
